By EC50 is commonly meant the concentration giving half of the maximal effect.

This is an account of results in patent publication US8785488B2 (Exelixis Patent Company LLC, priority 2009, dated 2014).

The target in this assay is T1, human TGR5 (h-TGR5) (Homo sapiens, UniProt Q8TDU6).
T1 construct: expressed in transfected cells
T1 sequence (Q8TDU6 1-330): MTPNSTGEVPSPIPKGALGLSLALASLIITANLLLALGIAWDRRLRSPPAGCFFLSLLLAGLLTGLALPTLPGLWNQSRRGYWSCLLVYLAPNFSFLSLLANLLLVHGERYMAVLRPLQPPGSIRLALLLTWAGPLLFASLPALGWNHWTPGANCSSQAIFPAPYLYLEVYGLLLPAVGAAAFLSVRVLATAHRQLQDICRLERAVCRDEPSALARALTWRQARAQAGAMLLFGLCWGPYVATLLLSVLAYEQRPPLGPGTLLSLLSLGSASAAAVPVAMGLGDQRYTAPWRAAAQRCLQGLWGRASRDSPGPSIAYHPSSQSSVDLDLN
As to the kind of experiment: TGR5/CRE-Luciferiase Assay (HEK 293 hTGR5/CRE-Luc cells). The assay is classed as cell-based. In short, it runs like this: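 HEK293 cells stably carrying hTGR5 and a CRE-luciferase reporter were exposed to serially diluted compounds (diluted in DMEM with 5% DMSO) for 6 h. Cells were then lysed in luciferase buffer, luminescence was read, and EC50 values were derived from dose-response curves.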

[1] abbreviates: h-TGR5 CRE-Luc EC50, Table 1, read-out: CRE-Luc (EC50).

Molecules are shown by their SMILES. Read-outs that look alike come from different tables or passages of the source. Some results are limits rather than exact numbers.

Regarding `COCCNC(=O)c1cc(CSc2ncc(C(C)(C)c3ccc(Cl)c(Cl)c3)n2-c2ccc(F)cc2)ccc1F` [5-[({5-[1-(3,4-dichlorophenyl)-1-methylethyl]-1-(4-fluorophenyl)-1H-imidazol-2-yl}thio)methyl]-2-fluoro-N-[2-(methyloxy)ethyl]benzamide], under setting [1], the EC50 lay within 0.1 to 1 µM.

With `COc1ccc(-c2cnc(SCc3ccc(F)cc3Cl)n2-c2ccc(F)cc2)cc1OC` [5-[3,4-bis(methyloxy)phenyl]-2-{[(2-chloro-4-fluorophenyl)methyl]thio}-1-(4-fluorophenyl)-1H-imidazole], the EC50 under setting [1] was in the range of 1 to 10 µM.

With `CC(C)(c1ccc(Cl)c(Cl)c1)c1cnc(SCc2c(F)cc(F)cc2F)n1-c1ccc(F)cc1` [5-[1-(3,4-dichlorophenyl)-1-methylethyl]-1-(4-fluorophenyl)-2-{[(2,4,6-trifluorophenyl)methyl]thio}-1H-imidazole], the EC50 under setting [1] was less than 0.1 µM.

On to `CC(C)(O)CNC(=O)c1cc(CSc2ncc(C(C)(C)c3ccc(Cl)c(Cl)c3)n2-c2ccc(F)cc2)ccc1F` [5-[({5-[1-(3,4-dichlorophenyl)-1-methylethyl]-1-(4-fluorophenyl)-1H-imidazol-2-yl}thio)methyl]-2-fluoro-N-(2-hydroxy-2-methylpropyl)benzamide], for which the EC50 under setting [1] was 0.1 to 1 µM.

Consider `COc1ccc(C(C)(C)c2cnc(S(=O)(=O)CCc3ccc(F)cc3Cl)n2-c2ccc(F)cc2)cc1OC` [5-{1-[3,4-bis(methyloxy)phenyl]-1-methylethyl}-2-{[2-(2-chloro-4-fluorophenyl)ethyl]sulfonyl}-1-(4-fluorophenyl)-1H-imidazole], for which the EC50 under setting [1] is less than 0.1 µM.

Regarding `COc1ccc(C(C)(C)c2cnc(CNc3ccc(Cl)c(Cl)c3)n2-c2ccc(F)cc2)cc1OC` [N-{[5-{1-[3,4-bis(methyloxy)phenyl]-1-methylethyl}-1-(4-fluorophenyl)-1H-imidazol-2-yl]methyl}-3,4-dichloroaniline], under setting [1], the EC50 is less than 0.1 µM.

`CC(=O)c1ccc(OCc2ncc(C(C)(C)c3ccc(Cl)c(Cl)c3)n2-c2ccc(F)cc2)c(Cl)c1` [1-{3-chloro-4-[({5-[1-(3,4-dichlorophenyl)-1-methylethyl]-1-(4-fluorophenyl)-1H-imidazol-2-yl}methyl)oxy]phenyl}ethanone]: the concentration for a half-maximal effect (EC50) under setting [1] lay within 1 to 10 µM.

In the case of `CC(C)(c1ccc(Cl)c(Cl)c1)c1cnc(C(F)CC2CCN(S(C)(=O)=O)CC2)n1-c1ccc(F)cc1` (centres unmarked) [4-(2-{5-[1-(3,4-dichlorophenyl)-1-methylethyl]-1-(4-fluorophenyl)-1H-imidazol-2-yl}-2-fluoroethyl)-1-(methylsulfonyl)piperidine], the EC50 under setting [1] is 1 to 10 µM.

`COc1cc(C(C)(C)c2cnc(SCC3CCN(CC(=O)O)CC3)n2-c2ccc(F)cc2)ccc1Cl` [[4-({[5-{1-[4-chloro-3-(methyloxy)phenyl]-1-methylethyl}-1-(4-fluorophenyl)-1H-imidazol-2-yl]thio}methyl)piperidin-1-yl]acetic acid]: under setting [1], the EC50 is 1 to 10 µM.

`CC(C)(c1ccc(Cl)c(Cl)c1)c1cnc(COc2ccc(F)cc2Cl)n1-c1ccc(F)cc1` [2-{[(2-chloro-4-fluorophenyl)oxy]methyl}-5-[1-(3,4-dichlorophenyl)-1-methylethyl]-1-(4-fluorophenyl)-1H-imidazole]: the EC50 under setting [1] was in the range of 1 to 10 µM.

Take `COCCNC(=O)c1ccc(CSc2ncc(C(C)(C)c3ccc(Cl)c(Cl)c3)n2-c2ccc(F)cc2)c(F)c1` [4-[({5-[1-(3,4-dichlorophenyl)-1-methylethyl]-1-(4-fluorophenyl)-1H-imidazol-2-yl}thio)methyl]-3-fluoro-N-[2-(methyloxy)ethyl]benzamide]: the EC50 under setting [1] is 0.1 to 1 µM.

Consider `CC(C)(c1ccc(Cl)c(Cl)c1)c1cnc(SCc2ccc(F)c(C(=O)NCCN3CCOCC3)c2)n1-c1ccc(F)cc1` [5-[({5-[1-(3,4-dichlorophenyl)-1-methylethyl]-1-(4-fluorophenyl)-1H-imidazol-2-yl}thio)methyl]-2-fluoro-N-(2-morpholin-4-ylethyl)benzamide], for which, under setting [1], the EC50 was in the range of 0.1 to 1 µM.

As for `CC(C)(O)c1cc(CSc2ncc(C(C)(C)c3ccc(Cl)c(Cl)c3)n2-c2ccc(F)cc2)ccc1Cl` [2-{2-chloro-5-[({5-[1-(3,4-dichlorophenyl)-1-methylethyl]-1-(4-fluorophenyl)-1H-imidazol-2-yl}thio)methyl]phenyl}propan-2-ol], the EC50 under setting [1] fell in the range of 0.1 to 1 µM.

As to `CC(C)(c1ccc(Cl)c(Cl)c1)c1cnc(CCc2c(F)cc(C(=O)O)cc2Cl)n1-c1ccc(F)cc1` [3-chloro-4-(2-{5-[1-(3,4-dichlorophenyl)-1-methylethyl]-1-(4-fluorophenyl)-1H-imidazol-2-yl}ethyl)-5-fluorobenzoic acid], the EC50 under setting [1] fell in the range of 0.1 to 1 µM.

For `CC(C)(c1ccc(Cl)c(Cl)c1)c1cnc(S(=O)(=O)Cc2c(Cl)cccc2Cl)n1-c1ccc(F)cc1` [5-[1-(3,4-dichlorophenyl)-1-methylethyl]-2-{[(2,6-dichlorophenyl)methyl]sulfonyl}-1-(4-fluorophenyl)-1H-imidazole], the EC50 under setting [1] fell in the range of 0.1 to 1 µM.

In the case of `CC(C)(O)c1cc(CSc2ncc(C(C)(C)c3ccc(Cl)c(Cl)c3)n2-c2ccc(F)cc2)ccc1F` [2-{5-[({5-[1-(3,4-dichlorophenyl)-1-methylethyl]-1-(4-fluorophenyl)-1H-imidazol-2-yl}thio)methyl]-2-fluorophenyl}propan-2-ol], the 50% effective concentration (EC50) under setting [1] was 0.1 to 1 µM.

On to `CC(C)(c1ccc(Cl)c(Cl)c1)c1cnc(SCc2ccc(F)cc2C(=O)O)n1-c1ccc(F)cc1` [2-[({5-[1-(3,4-dichlorophenyl)-1-methylethyl]-1-(4-fluorophenyl)-1H-imidazol-2-yl}thio)methyl]-5-fluorobenzoic acid], for which the EC50 under setting [1] fell in the range of 0.1 to 1 µM.

In the case of `CN1CCN(c2ccc(CSc3ncc(C(C)(C)c4ccc(Cl)c(Cl)c4)n3-c3ccc(F)cc3)cc2Cl)CC1` [1-{2-chloro-4-[({5-[1-(3,4-dichlorophenyl)-1-methylethyl]-1-(4-fluorophenyl)-1H-imidazol-2-yl}thio)methyl]phenyl}-4-methylpiperazine], the EC50 under setting [1] was in the range of 1 to 10 µM.

In the case of `COc1ccc(Cc2nnc(SCc3cccc(C(F)(F)F)c3F)n2-c2ccc(F)cc2)cc1OC` [Example 30], where the note is “HEK 293 hTGR5/CRE-Luc cells, 6 hours incubation, luciferase activity, Table 2, read-out: h-TGR5CRE-Luc EC50 (CRE-Luc)”, the EC50 was less than 0.1 µM.

In the case of `Fc1ccc(-n2c(C(F)(F)c3ccc(Cl)c(Cl)c3)cnc2SCc2c(F)cccc2Cl)cc1` [2-{[(2-chloro-6-fluorophenyl)methyl]thio}-5-[(3,4-dichlorophenyl)(difluoro)methyl]-1-(4-fluorophenyl)-1H-imidazole], the EC50 under setting [1] is 1 to 10 µM.

`CC(C)(c1ccc(Cl)c(Cl)c1)c1cnc(SCc2ccc(Cl)cc2C(=O)O)n1-c1ccc(F)cc1` [5-chloro-2-[({5-[1-(3,4-dichlorophenyl)-1-methylethyl]-1-(4-fluorophenyl)-1H-imidazol-2-yl}thio)methyl]benzoic acid]: under setting [1], the EC50 was in the range of 0.1 to 1 µM.

On to `CC(C)(c1ccc(Cl)c(Cl)c1)c1cnc(SCC2CCCN(S(C)(=O)=O)C2)n1-c1ccc(F)cc1` (centres unmarked) [3-[({5-[1-(3,4-dichlorophenyl)-1-methylethyl]-1-(4-fluorophenyl)-1H-imidazol-2-yl}thio)methyl]-1-(methylsulfonyl)piperidine], for which the EC50 under setting [1] lay in the range of 0.1 to 1 µM.

As to `CN(C)CCn1c(C(C)(C)c2ccc(Cl)c(Cl)c2)cnc1SCc1c(F)cccc1Cl` [2-(2-{[(2-chloro-6-fluorophenyl)methyl]thio}-5-[1-(3,4-dichlorophenyl)-1-methylethyl]-1H-imidazol-1-yl)-N,N-dimethylethanamine], the EC50 under setting [1] lay in the range of 1 to 10 µM.

As for `COc1c(Cl)cc(C(C)(C)c2cnc(SCc3ccc(S(N)(=O)=O)cc3F)n2-c2ccc(F)cc2)cc1Cl` [4-({[5-{1-[3,5-dichloro-4-(methyloxy)phenyl]-1-methylethyl}-1-(4-fluorophenyl)-1H-imidazol-2-yl]thio}methyl)-3-fluorobenzenesulfonamide], the EC50 under setting [1] was less than 0.1 µM.

As to `CC(C)(c1ccc(Cl)c(Cl)c1)c1cnc(COc2c(F)cccc2Cl)n1-c1ccc(F)cc1` [2-{[(2-chloro-6-fluorophenyl)oxy]methyl}-5-[1-(3,4-dichlorophenyl)-1-methylethyl]-1-(4-fluorophenyl)-1H-imidazole], the EC50 under setting [1] lay within 0.1 to 1 µM.

Consider `CC(C)(c1ccc(OCC(=O)O)c(Cl)c1)c1cnc(SCc2ccc(F)cc2Cl)n1-c1ccc(F)cc1` [[(2-chloro-4-{1-[2-{[(2-chloro-4-fluorophenyl)methyl]thio}-1-(4-fluorophenyl)-1H-imidazol-5-yl]-1-methylethyl}phenyl)oxy]acetic acid], for which the concentration for a half-maximal effect (EC50) under setting [1] lay in the range of 1 to 10 µM.

Take `CC(C)(c1ccc(Cl)c(Cl)c1)c1cnc(SCc2ccc(F)c(-c3nnn[nH]3)c2)n1-c1ccc(F)cc1` [5-{5-[({5-[1-(3,4-dichlorophenyl)-1-methylethyl]-1-(4-fluorophenyl)-1H-imidazol-2-yl}thio)methyl]-2-fluorophenyl}-1H-tetrazole]: the EC50 under setting [1] lay in the range of 0.1 to 1 µM.

Turning to `CC(C)(c1ccc(Cl)c(Cl)c1)c1cnc(SCc2ccc(F)cc2OCC(=O)O)n1-c1ccc(F)cc1` [({2-[({5-[1-(3,4-dichlorophenyl)-1-methylethyl]-1-(4-fluorophenyl)-1H-imidazol-2-yl}thio)methyl]-5-fluorophenyl}oxy)acetic acid], the concentration for a half-maximal effect (EC50) under setting [1] was 0.1 to 1 µM.

On to `CC(C)(c1ccc(Cl)c(Cl)c1)c1cnc(S(=O)(=O)Cc2c(F)cccc2Cl)n1-c1ccc(Cl)c(Cl)c1` [2-{[(2-chloro-6-fluorophenyl)methyl]sulfonyl}-1-(3,4-dichlorophenyl)-5-[1-(3,4-dichlorophenyl)-1-methylethyl]-1H-imidazole], for which, under setting [1], the EC50 lay within 1 to 10 µM.
